In PubChem BioAssay AID1259407 (Chemical Carcinogenesis Research Information System (CCRIS), 2018):
Activity calls are given as the source filed them. How the calls were made is not given here.

Tested on: CCRIS mutagenicity, Ames/micronucleus/aberration tests
Assay: CCRIS mutagenicity studies
[1] = Test System: AMES SALMONELLA TYPHIMURIUM, Strain/Indicator: TA100, Metabolic Activation: NONE, Method: PREINCUBATION
[2] = Test System: AMES SALMONELLA TYPHIMURIUM, Strain/Indicator: TA1537, Metabolic Activation: NONE, Method: PREINCUBATION

O=C/C=C/c1ccccc1
mutagenic call (End Point: IN VITRO CHROMOSOMAL ABERRATIONS, Test System: CHINESE HAMSTER OVARY CELLS, Metabolic Activation: NONE): inactive; negative
mutagenic call (End Point: IN VITRO CHROMOSOMAL ABERRATIONS, Test System: CHINESE HAMSTER OVARY CELLS, Metabolic Activation: RAT, LIVER, S-9, AROCLOR 1254): inactive; negative
mutagenic call (End Point: IN VIVO MICRONUCLEUS, Test System: BONE MARROW POLYCHROMATIC ERYTHROCYTES, Species: MOUSE, Strain/Sex: DDY/MALE, Route: IP): inactive; negative
mutagenic call (Test System: AMES SALMONELLA TYPHIMURIUM, Strain/Indicator: TA97, Metabolic Activation: NONE, Method: PREINCUBATION (120 MIN)): inactive; negative
mutagenic call (Test System: AMES SALMONELLA TYPHIMURIUM, Strain/Indicator: TA97, Metabolic Activation: S-9, Method: PREINCUBATION (120 MIN)): inactive; negative
mutagenic call (Test System: AMES SALMONELLA TYPHIMURIUM, Strain/Indicator: TA98, Metabolic Activation: HAMSTER, LIVER, S-9, AROCLOR 1254 (2.5-20%), Method: PREINCUBATION): inactive; negative
mutagenic call (Test System: AMES SALMONELLA TYPHIMURIUM, Strain/Indicator: TA98, Metabolic Activation: HAMSTER, LIVER, S-9, AROCLOR 1254, Method: STANDARD PLATE): inactive; negative
mutagenic call (Test System: AMES SALMONELLA TYPHIMURIUM, Strain/Indicator: TA98, Metabolic Activation: NONE, Method: PREINCUBATION (120 MIN)): inactive; negative
mutagenic call (Test System: AMES SALMONELLA TYPHIMURIUM, Strain/Indicator: TA98, Metabolic Activation: NONE, Method: STANDARD PLATE): inactive; negative
mutagenic call (Test System: AMES SALMONELLA TYPHIMURIUM, Strain/Indicator: TA98, Metabolic Activation: RAT, LIVER, S-9, AROCLOR 1254, Method: STANDARD PLATE): inactive; negative
mutagenic call (Test System: AMES SALMONELLA TYPHIMURIUM, Strain/Indicator: TA98, Metabolic Activation: S-9, Method: PREINCUBATION (120 MIN)): inactive; negative
mutagenic call (Test System: AMES SALMONELLA TYPHIMURIUM, Strain/Indicator: TA100, Metabolic Activation: HAMSTER, LIVER, S-9, AROCLOR 1254 (2.5-20%), Method: PREINCUBATION): inactive; negative
mutagenic call (Test System: AMES SALMONELLA TYPHIMURIUM, Strain/Indicator: TA100, Metabolic Activation: HAMSTER, LIVER, S-9, AROCLOR 1254, Method: STANDARD PLATE): inactive; negative
mutagenic call [1]: inactive; negative
mutagenic call (Test System: AMES SALMONELLA TYPHIMURIUM, Strain/Indicator: TA100, Metabolic Activation: NONE, Method: PREINCUBATION (120 MIN)): inactive; negative
mutagenic call (Test System: AMES SALMONELLA TYPHIMURIUM, Strain/Indicator: TA100, Metabolic Activation: NONE, Method: STANDARD PLATE): inactive; negative
mutagenic call (Test System: AMES SALMONELLA TYPHIMURIUM, Strain/Indicator: TA100, Metabolic Activation: RAT LIVER S-9, AROCLOR 1254, Method: PREINCUBATION): inactive; negative
mutagenic call (Test System: AMES SALMONELLA TYPHIMURIUM, Strain/Indicator: TA100, Metabolic Activation: RAT, LIVER, S-9, AROCLOR 1254, Method: PREINCUBATION): inactive; negative
mutagenic call (Test System: AMES SALMONELLA TYPHIMURIUM, Strain/Indicator: TA100, Metabolic Activation: RAT, LIVER, S-9, AROCLOR 1254, Method: STANDARD PLATE): inactive; negative
mutagenic call (Test System: AMES SALMONELLA TYPHIMURIUM, Strain/Indicator: TA100, Metabolic Activation: S-9, Method: PREINCUBATION (120 MIN)): inactive; negative
mutagenic call (Test System: AMES SALMONELLA TYPHIMURIUM, Strain/Indicator: TA102, Metabolic Activation: HAMSTER, LIVER, S-9, AROCLOR 1254, Method: PREINCUBATION): inactive; negative
mutagenic call (Test System: AMES SALMONELLA TYPHIMURIUM, Strain/Indicator: TA102, Metabolic Activation: MOUSE LIVER S-9, AROCLOR 1254, Method: PREINCUBATION): inactive; negative
mutagenic call (Test System: AMES SALMONELLA TYPHIMURIUM, Strain/Indicator: TA102, Metabolic Activation: NONE, Method: PREINCUBATION): inactive; negative
mutagenic call (Test System: AMES SALMONELLA TYPHIMURIUM, Strain/Indicator: TA102, Metabolic Activation: RAT LIVER S-9, AROCLOR 1254, Method: PREINCUBATION): inactive; negative
mutagenic call (Test System: AMES SALMONELLA TYPHIMURIUM, Strain/Indicator: TA102, Metabolic Activation: RAT, LIVER, S-9, AROCLOR 1254, Method: PREINCUBATION): inactive; negative
mutagenic call (Test System: AMES SALMONELLA TYPHIMURIUM, Strain/Indicator: TA104, Metabolic Activation: MOUSE LIVER S-9, AROCLOR 1254, Method: PREINCUBATION): inactive; negative
mutagenic call (Test System: AMES SALMONELLA TYPHIMURIUM, Strain/Indicator: TA104, Metabolic Activation: NONE, Method: PREINCUBATION): inactive; negative
mutagenic call (Test System: AMES SALMONELLA TYPHIMURIUM, Strain/Indicator: TA104, Metabolic Activation: RAT LIVER S-9, AROCLOR 1254, Method: PREINCUBATION): inactive; negative
mutagenic call (Test System: AMES SALMONELLA TYPHIMURIUM, Strain/Indicator: TA1535, Metabolic Activation: HAMSTER, LIVER, S-9, AROCLOR 1254, Method: STANDARD PLATE): inactive; negative
mutagenic call (Test System: AMES SALMONELLA TYPHIMURIUM, Strain/Indicator: TA1535, Metabolic Activation: NONE, Method: STANDARD PLATE): inactive; negative
mutagenic call (Test System: AMES SALMONELLA TYPHIMURIUM, Strain/Indicator: TA1535, Metabolic Activation: RAT, LIVER, S-9, AROCLOR 1254, Method: STANDARD PLATE): inactive; negative
mutagenic call (Test System: AMES SALMONELLA TYPHIMURIUM, Strain/Indicator: TA1537, Metabolic Activation: HAMSTER, LIVER, S-9, AROCLOR 1254, Method: STANDARD PLATE): inactive; negative
mutagenic call [2]: inactive; negative
mutagenic call (Test System: AMES SALMONELLA TYPHIMURIUM, Strain/Indicator: TA1537, Metabolic Activation: NONE, Method: STANDARD PLATE): inactive; negative
mutagenic call (Test System: AMES SALMONELLA TYPHIMURIUM, Strain/Indicator: TA1537, Metabolic Activation: RAT, LIVER, S-9, AROCLOR 1254, Method: STANDARD PLATE): inactive; negative
mutagenic call (Test System: AMES SALMONELLA TYPHIMURIUM, Strain/Indicator: TA1538, Metabolic Activation: HAMSTER, LIVER, S-9, AROCLOR 1254, Method: STANDARD PLATE): inactive; negative
mutagenic call (Test System: AMES SALMONELLA TYPHIMURIUM, Strain/Indicator: TA1538, Metabolic Activation: NONE, Method: STANDARD PLATE): inactive; negative
mutagenic call (Test System: AMES SALMONELLA TYPHIMURIUM, Strain/Indicator: TA1538, Metabolic Activation: RAT, LIVER, S-9, AROCLOR 1254, Method: STANDARD PLATE): inactive; negative
mutagenic call (Test System: MOUSE LYMPHOMA, Strain/Indicator: L5178Y (TK+/TK-), Metabolic Activation: NONE, Method: SUSPENSION/PLATE): active; positive. reevaluation of results: positive
mutagenic call (Test System: MOUSE LYMPHOMA, Strain/Indicator: L5178Y (TK+/TK-), Metabolic Activation: RAT, LIVER, S-9, AROCLOR 1254, Method: SUSPENSION/PLATE): active; positive. reevaluation of results: positive

O=C(O)CCc1c[nH]c2ccccc12
mutagenic call [1]: inactive; negative

COc1ccc(-c2noc(CC(=O)O)c2-c2ccc(OC)cc2)cc1
mutagenic call (Test System: AMES SALMONELLA TYPHIMURIUM, Strain/Indicator: TA98, Metabolic Activation: NONE, Method: PREINCUBATION): inactive; negative
mutagenic call (Test System: AMES SALMONELLA TYPHIMURIUM, Strain/Indicator: TA98, Metabolic Activation: RAT, LIVER, S-9, PHENOBARBITAL AND 5,6-BENZOFLAVONE, Method: PREINCUBATION): inactive; negative
mutagenic call [1]: inactive; negative
mutagenic call (Test System: AMES SALMONELLA TYPHIMURIUM, Strain/Indicator: TA100, Metabolic Activation: RAT, LIVER, S-9, PHENOBARBITAL AND 5,6-BENZOFLAVONE, Method: PREINCUBATION): inactive; negative
mutagenic call (Test System: AMES SALMONELLA TYPHIMURIUM, Strain/Indicator: TA1535, Metabolic Activation: NONE, Method: PREINCUBATION): inactive; negative
mutagenic call (Test System: AMES SALMONELLA TYPHIMURIUM, Strain/Indicator: TA1535, Metabolic Activation: RAT, LIVER, S-9, PHENOBARBITAL AND 5,6-BENZOFLAVONE, Method: PREINCUBATION): inactive; negative
mutagenic call [2]: inactive; negative
mutagenic call (Test System: AMES SALMONELLA TYPHIMURIUM, Strain/Indicator: TA1537, Metabolic Activation: RAT, LIVER, S-9, PHENOBARBITAL AND 5,6-BENZOFLAVONE, Method: PREINCUBATION): inactive; negative
mutagenic call (Test System: E. COLI, Strain/Indicator: WP2 UVRA, Metabolic Activation: NONE, Method: PREINCUBATION): inactive; negative
mutagenic call (Test System: E. COLI, Strain/Indicator: WP2 UVRA, Metabolic Activation: RAT, LIVER, S-9, PHENOBARBITAL AND 5,6-BENZOFLAVONE, Method: PREINCUBATION): inactive; negative
